Assay results published in US20150126464A1, “THERAPEUTIC DRUG AND THERAPEUTIC METHOD FOR NEUROLOGICAL DISEASES INCLUDING ALZHEIMER'S DISEASE ASSOCIATED WITH 1,25D3-MARRS” (priority 2013, published 2015).

Key:
1,25D3-MARRS [1] = target: T1, 1,25D3-MARRS (Mus musculus, UniProt P27773); test: Identification of the target protein for diosgenin (thermolysin proteolysis of lysate, LC/MS/MS); assay type: binding; conditions: mouse cortical neuron lysate, band thicker than in vehicle-treated lysate
T1 construct: endogenous in cells; host or cells: mouse cortical neuron primary culture (ddY, E14), cell lysate
T1 sequence (P27773 25-505): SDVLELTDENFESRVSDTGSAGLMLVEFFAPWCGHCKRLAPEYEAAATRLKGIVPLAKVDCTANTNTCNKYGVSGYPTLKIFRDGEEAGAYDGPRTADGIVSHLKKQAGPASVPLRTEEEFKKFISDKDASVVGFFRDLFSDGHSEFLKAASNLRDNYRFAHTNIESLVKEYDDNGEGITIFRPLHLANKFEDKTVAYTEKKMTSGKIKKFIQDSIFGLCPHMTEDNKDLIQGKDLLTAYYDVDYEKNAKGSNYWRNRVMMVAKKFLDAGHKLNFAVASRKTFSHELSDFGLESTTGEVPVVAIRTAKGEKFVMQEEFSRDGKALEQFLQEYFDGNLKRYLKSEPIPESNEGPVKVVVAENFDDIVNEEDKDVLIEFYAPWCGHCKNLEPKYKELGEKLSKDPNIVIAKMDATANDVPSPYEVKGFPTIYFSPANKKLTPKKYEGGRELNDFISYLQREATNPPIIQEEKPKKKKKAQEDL
Protocol: A mouse cortical neuron primary culture (ddY, E14) was maintained for 24 hours without any drug treatment. The cells were lysed with M-PER (Thermo Scientific) supplemented with protease and phosphatase inhibitors. After centrifugation (20,000×g) for 15 minutes, the protein concentration of the lysates was determined using Quick Start (Bio-Rad Laboratories, Hercules, Calif., USA). The cell lysate (5.6 μg each) was added to 2 μL of a vehicle solution of 10 mM diosgenin and incubated at 4° C. for 30 minutes. The mixture was proteolyzed using 7.5 μg of thermolysin in a reaction buffer [50 mM Tris-HCl (pH 8.0), 50 mM NaCl, and 10 mM CaCl2] at room temperature for 10 minutes. To stop the proteolysis, 0.5 M EDTA (pH 8.0) was added to each sample at a ratio of 1:10. The samples were then mixed well and placed on ice. The reaction samples were electrophoresed using a 5 to 20% real gel plate (Bio Craft, Tokyo, Japan). The separated proteins were stained using a negative gel stain MS kit (Wako). The bands in the diosgenin-treated lysate that were thicker than those in the vehicle-treated lysate were cut out and prepared for mass spectrometry analysis. After alkylation using iodoacetamide and in-gel digestion by trypsin, the supernatants were analyzed by nano-LC/MS/MS using LTQ Orbitrap XL (ThermoFisher). […]

normal mice = test: Location recognition test in normal mice; assay type: in vivo, mouse; conditions: diosgenin i.p. 7 days, 48 hours training-test interval
Protocol: Diosgenin (Wako Pure Chemical Industries, Ltd., Osaka, Japan) was dissolved in ethanol at 10 times the final concentration to give a stock solution, and the stock solution was diluted in a 5% aqueous solution of glucose to the final concentration. The diosgenin solution was intraperitoneally administered to normal mice (ddY mice, male, 6 weeks old) once a day (10 μmol/kg/day) for 5 or 6 days. One hour after the last administration, each mouse was housed in a separate open-field box made of polyvinyl chloride (33 cm×28 cm; height: 26.5 cm), habituated to the environment for 10 minutes, and used in the test.
Intraperitoneal administration to the mice of Example 2 and Comparative Example 3 was performed for 7 days. One hour after the last administration, a location recognition test was performed to evaluate the spatial recognition memory. Testing was carried out in a dimly illuminated room (100 lux). The test was performed as described in Tohda, C. et al., Br J Pharmacol. 157, 1427-1440, 2009, written by the inventor and others, except that the time interval between a training session and a test session was 48 hours. As a locomotion index, the path of each mouse was tracked using a digital camera system. The distance each mouse traveled during the 10 minutes was analyzed as locomotion activity with EthoVision 3.0 (Noldus, Wageningen, The Netherlands).

1,25D3-MARRS [2] = target: T2, 1,25D3-MARRS (Rattus norvegicus, UniProt P11598); test: Detection of luminescence resulting from 1,25D3-MARRS binding (cell surface-binding DHVD3); conditions: diosgenin 0.1 μM or 10 μM added with DHVD3 0.1 μM, 10 minutes
T2 construct: endogenous in cells; host or cells: primary cultured rat cortical neurons (SD, E17)
T2 sequence (P11598 25-505): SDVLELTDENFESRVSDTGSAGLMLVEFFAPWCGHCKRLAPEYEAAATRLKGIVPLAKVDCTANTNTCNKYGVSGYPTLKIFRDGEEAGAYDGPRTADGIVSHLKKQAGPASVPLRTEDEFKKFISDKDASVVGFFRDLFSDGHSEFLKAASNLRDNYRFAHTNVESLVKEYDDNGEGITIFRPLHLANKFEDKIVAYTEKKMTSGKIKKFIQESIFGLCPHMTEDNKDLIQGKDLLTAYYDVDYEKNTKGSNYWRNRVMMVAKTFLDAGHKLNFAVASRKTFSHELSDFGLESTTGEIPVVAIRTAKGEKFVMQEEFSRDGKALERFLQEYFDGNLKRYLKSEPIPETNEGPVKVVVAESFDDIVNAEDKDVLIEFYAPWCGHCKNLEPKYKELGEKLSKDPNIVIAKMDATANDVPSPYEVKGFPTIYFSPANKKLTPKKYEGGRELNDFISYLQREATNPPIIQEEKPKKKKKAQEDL
Source text: Embryos were removed from pregnant Sprague-Dawley rats (Japan SLC, Shizuoka, Japan) at 17 days of gestation. The cortices were dissected, and the dura mater was removed.
Primary cultured cortical neurons (SD, E17) were harvested into a 96-well white plate at a density of 0.5×10^5 cells/well. […] Horse radish peroxidase-conjugated goat anti-mouse IgG (1:2000) was used as a secondary antibody. The chemiluminescence of the antigen-antibody complex was detected using a GENios multi-plate reader (Tecan, Mannedorf, Zurich, Switzerland).

[3] = tested on: rat cortical neurons (SD E18); test: Axon density after Aβ (1-42)-induced axonal atrophy with 1,25D3-MARRS neutralizing antibody; assay type: cell-based; conditions: after Aβ (1-42) for 3 days; Ab099 clone 1:500; diosgenin 0.1 μM or 1 μM for 5 days
Protocol: Aβ (1-42) was incubated at 37° C. for four days for aggregation beforehand. […] After the 3-day treatment, a control antibody (normal rabbit IgG, 1:5000) was added to the cells, and the cells were incubated for 10 minutes and further treated with diosgenin (0.1 μM) for 5 days.
Seven to nine images were captured.

For `C[C@@H]1CC[C@@]2(OC1)O[C@H]1C[C@H]3[C@@H]4CC=C5C[C@@H](O)CC[C@]5(C)[C@H]4CC[C@]3(C)[C@H]1[C@@H]2C` [diosgenin], which “direct target protein identified” value (1,25D3-MARRS [1]) is on record?
Its value is “direct target protein of diosgenin was 1,25D3-MARRS”.

What about the “frequency of exploratory behavior for the object moved to a new location” value (normal mice) of the same compound?
The value was greater than 50%.

And the “immunochemiluminescence intensity of cell surface-bound DHVD3 (replacement of DHVD3)” value (1,25D3-MARRS [2])?
Its value is “remarkably decreased”.

And the “diosgenin-induced axonal growth in cells where 1,25D3-MARRS was inhibited by the neutralizing antibody” value [3]?
The value was “significantly suppressed”.
